Patent US20050267182A1, “Urea derivatives as FLT-3 modulators” (Ambit Biosciences Corporation, priority 2003, published 2005)

Key:
FLT3 = biological target: T1, FLT3 (Homo sapiens, UniProt P36888); assay: Binding constant (Kd) measurement, phage-displayed kinase competition binding assay; conditions: for Binding Assay: FLT3(DKIN): FLT3(DKIN) construct; for Binding Assay: FLT3(JMminus): FLT3(JMminus) construct
T1 construct: FLT3(DKIN); made in house
T1 sequence (P36888 610-943 limits assumed): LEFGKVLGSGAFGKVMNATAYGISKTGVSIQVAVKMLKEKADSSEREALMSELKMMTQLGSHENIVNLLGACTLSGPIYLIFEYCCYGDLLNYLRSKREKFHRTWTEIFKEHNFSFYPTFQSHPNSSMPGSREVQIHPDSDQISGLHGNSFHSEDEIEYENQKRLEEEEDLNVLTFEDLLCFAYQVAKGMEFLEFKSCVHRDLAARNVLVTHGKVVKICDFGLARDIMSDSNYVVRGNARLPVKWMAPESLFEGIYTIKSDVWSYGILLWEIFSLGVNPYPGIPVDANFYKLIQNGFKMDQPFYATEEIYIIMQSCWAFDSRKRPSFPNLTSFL
Source text: Binding Constant (Kd) Measurements for Small-Molecule-Kinase Interactions
The term “ND” represents non-determined values.

MV4,11 cells = assay: FLT3 assay using MV4,11 cells (cellular proliferation, MTS); type: cell-based, human; conditions: cell assay code CS0001; for IC50: Homo sapiens, MV4-11
Method: The ability of FLT3 kinase inhibitors to inhibit cellular proliferation was also examined. MV4:11 was a cell line derived from a patient with acute myelogenous leukemia.
FLT3 Assay Using MV4,11 Cells
MV4,11 cells were grown in an incubator @ 37° C. in 5% CO2 in Medium 2 (RPMI, 10% FBS, 4 mM glutamine, Penn/Strep). The cells were counted daily and the cell density was kept between 1e5 and 8e5 cells/ml.
Day One: Enough cells were harvested for experiments to be conducted in 50 ml conical tubes. The harvested cells were spun at 500 g for 5 min at 4° C., the supernatant was then aspirated and the cells were resuspended in the starting volume of 1×PBS. The cells were again spun at 500 g for 5 min at 4° C. and the supernatant again aspirated. The cells were then resuspended in medium 3 (DMEM w/ glut, 10% FBS, Penn/Strep) to a density of 4e5 cells/ml and incubated (37° C. in 5% CO2 O/N.
Day Two: The cells were counted and enough medium 3 was added to decrease density to 2e5 cells/ml. 50 ul (10,000 cells) was aliquoted into each well of a 96 well optical plate using multichannel pipetman. The compound plate was then set up by aliquoting 3 μl of negative control (DMSO) into column 1 of a 96 well 300 ul polypropylene plate, aliquoting 3 μt of positive control (10 mM AB20121) into column 12 of plate, and aliquoting 3 μl of appropriate compounds from serial dilutions into columns 2-11. To each well, 150 μl of Medium 3 was added and 50 μl of compound/medium mixture from compound plate into rows of optical plate in duplicate. The cells were then incubated @ 37° C. in 5% CO2 for 3 days.
Day Five: MTS was thawed in a H2O bath. 20 μl of MTS was added to each well of optical plate and the cells were incubated (37° C. in 5% CO2 for 2 hours. The plate was then placed on a plate shaker for 30 seconds on high speed.

Structure (SMILES) | Binding Assay: FLT3(DKIN) (FLT3) | Cell Assay: CS0001:IC50 (MV4,11 cells) | Binding Assay: FLT3(JMminus) (FLT3) | IC50 (MV4,11 cells) [µM]
CC(C)(C)c1cc(NC(=O)Nc2ccc(OCCN3CCSCC3)cc2)no1 [Compound G53] | + + + | + + | – | –
CC(C)(C)c1cc(NC(=O)Nc2ccc(OCCc3ccc(F)cc3)cc2)no1 [Compound G24] | + + + + | + + + | – | –
CC(C)(C)c1cc(NC(=O)Nc2ccc(NC(=O)c3cccnc3)cc2)co1 [Compound N1] | + + + + | + + + | – | –
CC(C)(C)c1cc(NC(=O)Nc2ccc(NC(=O)C3=Cc4cc(F)cc(S(C)(=O)=O)c4C3)cc2)no1 [Compound N62] | + + + + | + + + | – | –
CC(C)(C)c1cc(NC(=O)Nc2ccc(OCc3ccccc3C(F)(F)F)cc2)no1 [Compound G4] | + + + | + + | – | –
COC(=O)c1cccc(COc2ccc(NC(=O)Nc3cc(C(C)(C)C)on3)cc2)c1 [Compound G7] | + + + + | + + + | – | –
CC(C)(C)c1cc(NC(=O)Nc2ccc(NC(=O)c3ccnc4ccccc34)cc2)no1 [Compound N141] | + + + + | + + + | – | –
COc1ccc(NC(=O)Nc2cc(C(C)(C)C)on2)cc1OC [Compound A55] | – | – | + + | > 10
CC(C)(C)c1cc(NC(=O)Nc2ccc(NC(=O)c3cccc4nc5cc(O)cc(O)c5cc34)cc2)no1 [Compound N139] | + + + | + + + | – | –
CC(C)(C)c1cc(NC(=O)Nc2ccc(NC(=O)CCc3ccccc3)cc2)no1 [Compound N96] | + + + + | + + + + | – | –
CC(C)(C)c1cc(NC(=O)Nc2ccc(NC(=O)c3csc(Cc4cccc(C(F)(F)F)c4)n3)cc2)no1 [Compound N180] | – | + + + | + + + + | –
Cn1nc(C(C)(C)C)cc1NC(=O)Nc1ccc(OCc2ccccc2)cc1 [Compound H2] | + + + + | + + + + | – | –
Cn1nc(-c2ccccc2)c(C(=O)Nc2ccc(NC(=O)Nc3cc(C(C)(C)C)on3)cc2)c1Cl [Compound N11] | + + | + + | – | –
CC(C)(C)c1cc(NC(=O)Nc2ccc(NC(=O)c3nccc4ccccc34)cc2)no1 [Compound N117] | + + + + | + + + + | – | –
CC(C)(C)c1cc(NC(=O)Nc2ccc(NC(=O)c3sccc3CCc3cccc(C(F)(F)F)c3)cc2)no1 [Compound N183] | – | + + | + + + + | –
CC(C)(C)c1cc(NC(=O)Nc2ccc(NC(=O)Cc3sc(-c4ccc(Cl)cc4)nc3-c3ccccc3)cc2)no1 [Compound N66] | + + + + | + + + | – | –
CCOC(=O)CCc1c(C)[nH]c(C(=O)Nc2ccc(NC(=O)Nc3cc(C(C)(C)C)on3)cc2)c1C [Compound N83] | + + + + | + + + | – | –
CC(C)(C)c1cc(NC(=O)Nc2ccc(NC(=O)c3ccc4cccnc4n3)cc2)no1 [Compound N144] | + + + + | + + + | – | –
Cc1cc(NC(=O)c2cn3nc(Cl)ccc3n2)ccc1NC(=O)Nc1cc(C(C)(C)C)on1 [Compound N169] | – | + + + | + + + | –
CC(C)c1nnsc1C(=O)Nc1ccc(NC(=O)Nc2cc(C(C)(C)C)on2)cc1 [Compound N182] | – | + + | + + + | –

Structure (SMILES) | Binding Assay: FLT3(DKIN) (FLT3) | Cell Assay: CS0001:IC50 (MV4,11 cells) | Binding Assay: FLT3(JMminus) (FLT3) | IC50 (MV4,11 cells) [µM]
CC(C)(C)c1cc(NC(=O)Nc2ccc(NC(=O)c3ccccc3O)cc2)no1 [Compound N69] | – | + + + | + + | –
Cc1ccc(-n2nc(C(C)(C)C)cc2NC(=O)Nc2ccc(OCCN3CCOC(CO)C3)c3ccccc23)cc1 (stereo not shown) [Compound G38] | + + + + | + + + | – | –
CC(C)(C)c1cc(NC(=O)Nc2ccc(NC(=O)c3nn(-c4cccc(C(F)(F)F)c4)c(=O)cc3O)cc2)no1 [Compound N185] | – | + + | + + + | –
O=C(c1cc2ccccc2[nH]1)c1cc2cc(O)ccc2[nH]1 | + + + + | + + + | – | –
CC(C)(C)c1cc(NC(=O)Nc2ccc(OCCc3ccccn3)cc2)no1 [Compound G27] | + + + + | + + + | – | –
CC(C)(C)c1cc(NC(=O)Nc2ccc(NC(=O)c3cc(Cl)nnc3Cl)cc2)no1 [Compound N174] | + + + + | + + and + + + | + + + | –
Cc1nccn1CCOc1ccc(NC(=O)Nc2cc(C(C)(C)C)on2)cc1 [Compound G51] | + + + + | + + + | – | –
CC(C)(C)c1cc(NC(=O)Nc2ccc(NC(=O)c3cnc4ccccc4n3)cc2)no1 [Compound N149] | + + + | + + | – | –
CC(C)(C)c1cc(NC(=O)Nc2ccc(C(=O)Nc3ccc(Cl)cc3)cc2)no1 [Compound N156] | + + + + | + + + | – | –
COc1ccc(NC(=O)Nc2cc(C(F)(F)F)cc(Cl)n2)cc1 [Compound Z71] | + + + + | + + + | – | –
CC(C)(C)c1cc(NC(=O)Nc2ccc(NC(=O)c3cc(O)c4cccc(O)c4n3)cc2)no1 [Compound N176] | – | – | + + + | > 10
CC(C)(C)c1csc(NC(=O)Nc2ccc(OCc3ccccc3)cc2)n1 [Compound G49] | + + | + + + | – | –
CC(C)(C)c1cc(NC(=O)Nc2ccc(NC(=O)Cc3ccccc3)cc2)no1 [Compound N35] | + + + | + + | – | –
COc1cccc(-c2ccc(C(=O)Nc3ccc(NC(=O)Nc4cc(C(C)(C)C)on4)cc3)o2)c1 [Compound N105] | + + + + | + + + | – | –
CC(C)(C)c1cc(NC(=O)Nc2ccc(NC(=O)CC(N)c3ccccc3Cl)cc2)no1 (stereo not shown) [Compound N44] | + + | + + | – | –
CC(C)(C)c1cc(NC(=O)Nc2ccc(NC(=O)c3cccc(Br)c3)cc2)no1 [Compound N24] | + + + | + + | – | –
Cc1noc(-c2ccc(NC(=O)Nc3cc(C(C)(C)C)on3)cc2)n1 [Compound P9] | + + + + | + + + | – | –
Cc1nc(C(=O)Nc2ccc(NC(=O)Nc3cc(C(C)(C)C)on3)cc2)c(C(F)(F)F)o1 [Compound N55] | + + + + | + + + | – | –
Cc1ncccc1C(=O)Nc1ccc(NC(=O)Nc2cc(C(C)(C)C)on2)cc1 [Compound N145] | + + + + | + + + | – | –
